The target of assay [1] is recombinant human NF-kappaB-inducing kinase (NIK/MAP3K14) (Homo sapiens, UniProt Q99558). As to the kind of experiment: Inhibition of auto-phosphorylation of recombinant human NIK/MAP3K14 activity (AlphaScreen). Format: biochemical. The following applies: GST-tagged NIK/MAP3K14 1 nM, 5 μM ATP, 2 h at 25° C.; average of values obtained. As for the experimental part:
Inhibition of Auto-Phosphorylation of Recombinant Human NF-kappaB-Inducing Kinase (NIK/MAP3K14) Activity (AlphaScreen®)
NIK/MAP3K14 auto-phosphorylation activity was measured using the AlphaScreen® (αscreen) format (Perkin Elmer). All compounds tested were dissolved in dimethyl sulfoxide (DMSO) and further dilutions were made in assay buffer. The final DMSO concentration was 0.7% (v/v) in assays. The assay buffer was 50 mM Tris pH 7.5 containing 1 mM EGTA (ethylene glycol tetraacetic acid), 1 mM DTT (dithiothreitol), 0.1 mM Na3VO4, 5 mM MgCl2, and 0.01% Tween® 20. The assays were carried out in 384 well Proxiplates (Perkin Elmer). The incubations consisted of the compound, 5 μM Adenosine-5′-triphosphate (ATP), and 1 nM NIK/MAP3K14. Incubations were initiated by the addition of GST-tagged NIK/MAP3K14 enzyme, carried out for 2 h at 25° C. and terminated by addition of stop buffer containing anti-phospho-IKK Ser176/180 antibody. Protein A Acceptor and Glutathione-Donor beads were added before reading using an EnVision Multilabel Plate Reader (Perkin Elmer). The signal obtained in the wells was normalized using high (full enzyme activity, 0.7% DMSO) and low controls (no enzyme activity, 0.7% DMSO, no ATP). IC50's were determined by fitting a sigmoidal curve to % inhibition of control versus Log10 compound concentration.

Assay [2] concerns p-IKKα levels in L363 (NIK translocated multiple myeloma) cells. As to the kind of experiment: Effect of compounds on p-IKKα levels in L363 cells (AlphaLISA SureFire Ultra). Particulars: 10 μM MG132, 6 h, average of values obtained, read-out: Assay 2 IC50. Format: cell-based, human. As for the experimental part: Effect of Compounds on p-IKKα Levels in L363 (NIK Translocated Multiple Myeloma) Cells
All compounds tested were dissolved and serially diluted in DMSO, 1:3 dilution for 11 points in an Echo compatible plate. 100% DMSO was added to columns 12 and 24 of the plate to serve as high and low signal controls. This compound plate was used to spot 20 nL of compound or DMSO into a Greiner 384 well TC plate (781080). The final DMSO concentration was 0.3% (v/v) in cell assays. Human L363 cells (ATCC) were cultured in RPMI1640 medium supplemented with GlutaMax, non-essential amino acids, sodium pyruvate and 10% fetal bovine serum. Cells were routinely maintained at densities of […]-2×10^6 cells per mL at 37° C. in a humidified 5% CO2 atmosphere incubator. Cells were passaged twice a week splitting back to obtain the low density. The day before the assay, cells were washed twice in HBSS (Hank's Balanced Salt Solution), resuspended in Dulbecco's Modified Eagle Medium (DMEM)+0.5% IgG and protease free BSA (Jackson Immuno Research Laboratories), +/−250 ng/ml recombinant human B-cell activating factor (BAFF/BLyS/TNFSF13B) and incubated overnight at 37° C. in a humidified 5% CO2 atmosphere (bulk stimulation with or without BAFF). The next day, the cell concentration was adjusted to 1×10^7 cells/ml in DMEM+/−250 ng/ml BAFF+/10 μM MG132 and plated at […] into compound or DMSO spotted 384 well TC plates. Seeded cells were incubated at 37° C. in a humidified 5% CO2 atmosphere for 6 h. After 6 h, the plates were removed from the incubator and cell lysis was achieved by the addition of 2.5 μl 5×lysis buffer containing protease and phosphatase inhibitors, followed by shaking on a plate shaker at room temperature for 15 min. At the end of this incubation, lysed cells were sequentially treated and incubated with acceptor and donor bead mixes according to the manufacturer's protocol for a 1 plate/2-incubation suspension cell assay (AlphaLISA SureFire Ultra p-IKKa (Ser 176/180) Assay Kit (Perkin Elmer). Plates were read using an EnVision Multilabel Plate Reader (Perkin Elmer). Within an experiment, a concentration response curve for each compound was run in duplicate. The signal obtained in the test wells was normalized using high signal (BAFF stimulated cells, DMSO, MG132) and low signal (unstimulated cells, DMSO) controls. To determine the IC50, a sigmoidal curve was fitted to the plot of % inhibition versus Log10 compound concentration.
A general note: Bead proximity is the source of the signal in Alpha formats.

Where [3] appears, read: Homo sapiens, L-363, 250 ng/ml BAFF stimulated.
[4] abbreviates: Homo sapiens, L-363, 6 h, 250 ng/ml BAFF stimulated.

pIC50: −log10 of the molar value. Like-named read-outs stand apart in the source and are kept apart here. Bounds are passed on as bounds.

recombinant human NF-kappaB-inducing kinase (NIK/MAP3K14), sequence (Q99558 whole entry): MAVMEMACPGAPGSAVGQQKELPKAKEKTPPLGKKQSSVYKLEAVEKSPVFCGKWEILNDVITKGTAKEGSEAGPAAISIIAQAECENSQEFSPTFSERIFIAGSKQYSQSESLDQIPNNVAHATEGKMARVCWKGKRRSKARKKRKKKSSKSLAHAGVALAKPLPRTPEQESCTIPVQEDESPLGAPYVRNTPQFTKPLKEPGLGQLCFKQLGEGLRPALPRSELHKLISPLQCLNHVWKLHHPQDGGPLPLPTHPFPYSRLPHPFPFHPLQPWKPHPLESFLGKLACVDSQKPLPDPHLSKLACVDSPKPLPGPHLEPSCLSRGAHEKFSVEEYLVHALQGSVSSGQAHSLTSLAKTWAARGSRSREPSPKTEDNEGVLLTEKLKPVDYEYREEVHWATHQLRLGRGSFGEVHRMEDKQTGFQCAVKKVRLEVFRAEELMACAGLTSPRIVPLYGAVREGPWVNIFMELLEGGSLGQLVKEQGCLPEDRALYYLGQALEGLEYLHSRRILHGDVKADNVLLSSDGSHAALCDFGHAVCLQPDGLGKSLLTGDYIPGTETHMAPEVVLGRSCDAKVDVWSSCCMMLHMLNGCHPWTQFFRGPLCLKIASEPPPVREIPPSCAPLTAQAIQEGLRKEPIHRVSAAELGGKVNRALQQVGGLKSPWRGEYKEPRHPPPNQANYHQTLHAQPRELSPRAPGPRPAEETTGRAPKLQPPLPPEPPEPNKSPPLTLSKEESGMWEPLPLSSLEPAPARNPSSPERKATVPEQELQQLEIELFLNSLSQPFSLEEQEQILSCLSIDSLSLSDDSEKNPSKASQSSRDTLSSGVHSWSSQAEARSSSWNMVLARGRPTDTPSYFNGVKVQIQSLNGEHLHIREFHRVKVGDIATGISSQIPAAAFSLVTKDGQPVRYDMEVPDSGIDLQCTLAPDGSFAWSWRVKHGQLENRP

On to `O[C@@]1(c2cccc(-c3csc(-c4c[nH]c5ncccc45)n3)c2)COc2cccnc21` [Example 85, (R)-3-(3-(2-(1H-Pyrrolo[2,3-b]pyridin-3-yl)thiazol-4-yl)phenyl)-2,3-dihydrofuro[3,2-b]pyridin-3-ol], for which the pIC50 in assay [1] and in assay [2] (250 ng/ml BAFF stimulated) was less than 6.30 in each case.
As for `CN1CC[C@@](O)(c2cccc(-c3csc(-n4ccc5nc(N)ccc54)n3)c2)C1=O` [Example 112, (R)-3-(3-(2-(5-Amino-1H-pyrrolo[3,2-b]pyridin-1-yl)thiazol-4-yl)phenyl)-3-hydroxy-1-methylpyrrolidin-2-one], the pIC50 in assay [1] and in assay [2] (setting [3]) was less than 6.30 in each case.
In the case of `O[C@@]1(c2cccc(-c3csc(-c4c[nH]c5nccnc45)n3)c2)COc2cccnc21` [Example 86, (R)-3-(3-(2-(5H-Pyrrolo[2,3-b]pyrazin-7-yl)thiazol-4-yl)phenyl)-2,3-dihydrofuro[3,2-b]pyridin-3-ol], the pIC50 in assay [1] and in assay [2] (250 ng/ml BAFF stimulated) was less than 6.30 throughout.
Regarding `Cc1ccc([C@]2(O)CCN(C)C2=O)cc1-c1csc(-c2c[nH]c3nccnc23)n1` [Example 67, (R)-3-(3-(2-(5H-Pyrrolo[2,3-b]pyrazin-7-yl)thiazol-4-yl)-4-methylphenyl)-3-hydroxy-1-methylpyrrolidin-2-one], the negative-log IC50 (pIC50) in assay [1] was no less than 7.00; in assay [2] (setting [3]), less than 6.30.
On to `O[C@]1(c2cccc(-c3csc(-c4c[nH]c5ncccc45)n3)c2)CCc2cccnc21` (single isomer, unassigned) [Example 1], for which the pIC50 in assay [1] and in assay [2] (setting [4]) was less than 6.30 throughout.
As to `O[C@]1(c2cccc(-c3csc(-c4c[nH]c5ncncc45)n3)c2)CCn2ccnc21` [Example 21, (S)-7-(3-(2-(7H-Pyrrolo[2,3-d]pyrimidin-5-yl)thiazol-4-yl)phenyl)-6,7-dihydro-5H-pyrrolo[1,2-a]imidazol-7-ol], the pIC50 in assay [1] was 6.30 to 7.00; in assay [2] (setting [4]), less than 6.30.
Consider `CN1CC[C@@](O)(c2cccc(-c3cnc(-c4c[nH]c5ncccc45)s3)c2)C1=O` (single isomer, unassigned) [Example 3], for which the pIC50 in assay [1] is 6.30 to 7.00; in assay [2] (setting [3]), less than 6.30.
The matching figures for `CN1C[C@@](O)(c2cccc(-c3csc(-c4c[nH]c5nccnc45)n3)c2)C1=O` [Example 45, (S)-3-(3-(2-(5H-Pyrrolo[2,3-b]pyrazin-7-yl)thiazol-4-yl)phenyl)-3-hydroxy-1-methylazetidin-2-one]: less than 6.30 and less than 6.30.
Regarding `CN1CC[C@@](O)(c2cccc(-n3ncc(-c4c[nH]c5ncccc45)n3)c2)C1=O` (single isomer, unassigned) [Example 109], the results for the pIC50 in assay [1] and in assay [2] (setting [3]) were no less than 7.00 and less than 6.30, respectively.
In the case of `O[C@]1(c2cccc(-c3csc(-c4c[nH]c5nccnc45)n3)c2)C=Cn2ccnc21` [Example 14, (S)-7-(3-(2-(5H-Pyrrolo[2,3-b]pyrazin-7-yl)thiazol-4-yl)phenyl)-7H-pyrrolo[1,2-a]imidazol-7-ol], the pIC50 in assay [1] and in assay [2] (setting [4]) was less than 6.30 each time.
As to `O[C@]1(c2cccc(-c3csc(-c4c[nH]c5ncccc45)n3)c2)CCc2scnc21` (single isomer, unassigned) [Example 31], the pIC50 was 6.30 to 7.00 in assay [1] and less than 6.30 in assay [2] (setting [4]).
On to `CN1CC[C@@](O)(c2cccc(-c3cc(-c4c[nH]c5ncccc45)nn3C)c2)C1=O` [Example 118, (R)-3-Hydroxy-1-methyl-3-(3-(1-methyl-3-(1H-pyrrolo[2,3-b]pyridin-3-yl)-1H-pyrazol-5-yl)phenyl)pyrrolidin-2-one], for which the figures for the pIC50 in assay [1] and in assay [2] (setting [3]) were 6.30 to 7.00 and less than 6.30, respectively.
On to `CN1CC[C@@](O)(c2cccc(-c3nc(-c4ccnc5[nH]ccc45)cs3)c2)C1=O` [Example 127, (R)-3-(3-(4-(1H-Pyrrolo[2,3-b]pyridin-4-yl)thiazol-2-yl)phenyl)-3-hydroxy-1-methylpyrrolidin-2-one], for which the negative logarithm of the IC50 (pIC50) in assay [1] is no less than 7.00; in assay [2] (setting [3]), less than 6.30.
Take `O[C@@]1(c2cccc(-c3csc(-c4n[nH]c5nccnc45)n3)c2)CCn2ccnc21` [Example 76, (R)-7-(3-(2-(1H-Pyrazolo[3,4-b]pyrazin-3-yl)thiazol-4-yl)phenyl)-6,7-dihydro-5H-pyrrolo[1,2-a]imidazol-7-ol]: the pIC50 was 6.30 to 7.00 in assay [1] and less than 6.30 in assay [2] (setting [4]).
With `Cc1ccnc2[nH]cc(-c3nc(-c4cccc([C@]5(O)CCn6ccnc65)c4)cs3)c12` [Example 87, (R)-7-(3-(2-(4-Methyl-1H-pyrrolo[2,3-b]pyridin-3-yl)thiazol-4-yl)phenyl)-6,7-dihydro-5H-pyrrolo[1,2-a]imidazol-7-ol], the values for the negative logarithm of the IC50 (pIC50) in assay [1] and in assay [2] (setting [4]) were no less than 7.00 and less than 6.30, respectively.
The like results for `Cn1ccnc1[C@@](C)(O)c1cccc(-c2csc(-c3c[nH]c4ncccc34)n2)c1` (single isomer, unassigned) [Example 79] were, in that order, less than 6.30 and less than 6.30.
Regarding `[2H]c1cnc2[nH]cc(-c3nc(-c4cccc([C@]5(O)CCn6ccnc65)c4)cs3)c2n1` [Example 63, (R)-7-(3-(2-(5H-Pyrrolo[2,3-b]pyrazin-7-yl-2-d)thiazol-4-yl)phenyl)-6,7-dihydro-5H-pyrrolo[1,2-a] imidazol-7-ol], the pIC50 in assay [1] and in assay [2] (setting [4]) was no less than 7.00 throughout.
As for `CC1(C)Cc2cccnc2[C@@]1(O)c1cccc(-c2csc(-c3c[nH]c4ncccc34)n2)c1` (single isomer, unassigned) [Example 35], the pIC50 in assay [1] and in assay [2] (setting [4]) was less than 6.30 each time.
For the molecule `O[C@H]1C[C@@](O)(c2cccc(-c3csc(-c4c[nH]c5ncccc45)n3)c2)c2ncccc21` (single isomer, unassigned) [Example 103], the pIC50 in assay [1] and in assay [2] (setting [4]) was less than 6.30 each time.
Take `CN1CC[C@@](O)(c2cccc(-c3ccc(-c4c[nH]c5ncccc45)o3)c2)C1=O` [Example 114, (R)-3-(3-(5-(1H-Pyrrolo[2,3-b]pyridin-3-yl)furan-2-yl)phenyl)-3-hydroxy-1-methylpyrrolidin-2-one]: the pIC50 in assay [1] is no less than 7.00; in assay [2] (setting [3]), 6.30 to 7.00.
The like results for `CN1CC[C@@](O)(c2cccc(-c3csc(-c4c[nH]c5ncc(Cl)c(F)c45)n3)c2)C1=O` [Example 95, (R)-3-(3-(2-(5-Chloro-4-fluoro-1H-pyrrolo[2,3-b]pyridin-3-yl)thiazol-4-yl)phenyl)-3-hydroxy-1-methylpyrrolidin-2-one] were, in that order, no less than 7.00 and less than 6.30.
The like results for `Cc1c(-c2c[nH]c3ncccc23)n[nH]c1-c1cccc([C@]2(O)CCN(C)C2=O)c1` [Example 119, (R)-3-Hydroxy-1-methyl-3-(3-(4-methyl-3-(1H-pyrrolo[2,3-b]pyridin-3-yl)-1H-pyrazol-5-yl)phenyl)pyrrolidin-2-one] were, in that order, less than 6.30 and less than 6.30.
In the case of `C[C@]1(O)C[C@](O)(c2cccc(-c3csc(-c4c[nH]c5ncccc45)n3)c2)c2ncccc21` (single isomer, unassigned) [Example 105], the pIC50 in assay [1] and in assay [2] (setting [4]) was less than 6.30 in each case.

Broadly, the pIC50 is the IC50 on a negative log10 scale, so that one unit is a factor of ten.

The values are drawn from patent US20230416256A1, “SMALL MOLECULE INHIBITORS OF NF-kB INDUCING KINASE” (Janssen Pharmaceutica NV, priority 2020, published 2023).
